Literature values as cited in patent publication US20130164384A1, “METHODS OF TREATING BOWEL DISEASES BY ADMINISTERING A BOWEL CLEANSER AND AN ANTIBIOTIC” (Salix Pharmaceuticals, Ltd., priority 2008, published 2013).
Like-named read-outs stand apart in the source and are kept apart here.

Conditions: cited from earlier work

## CC(=O)Oc1ccc(C(c2ccc(OC(C)=O)cc2)c2ccccn2)cc1 [Bisacodyl]
enemas
  Time to produce a bowel movement: about 20 minutes
suppositories
  Time to produce a bowel movement: about an hour
